Test results taken from patent US7811352B2, “Fertilizer compositions and methods of using” (priority 2005, dated 2010).

Columns and labels:
[1] = test system: total soil bacteria and fungi; experiment: Soil microbial population (plate count) after fertilizer application to Kentucky bluegrass turf (Example 8); conditions: 1.0 lb N/1000 ft^2; 24, 48 and 72 hours after application
Experimental: In this Example, the effect on various embodiments of the fertilizer composition on soil microbial population (bacterial and fungal) was examined. The Example compared the effect on total microbial populations 24, 48 and 72 hours after application of the fertilizer to a Kentucky bluegrass turf.
The following fertilizer compositions were used: urea, dry lysine (lysine (HCl), LIQUID LYSINE brand aqueous lysine solution (available from Archer-Daniels-Midland Company, Decatur, Ill.), a threonine cell mass, a lysine cell mass, and soy/lysine combination (a granular mixture of dry lysine and soy flour, soy flakes and soybean oil. Analysis of the threonine cell mass is presented in Table 5. The effect of the fertilizer compositions on microbial population were compared with a control plot to which no fertilizer composition was applied. The dry lysine was dissolved in water and applied by spraying on the turf plot. The fertilizer compositions were applied at a rate of 1.0 lb N/1000 ft^2 of Kentucky bluegrass turf Soil samples from the turf were analyzed for total soil bacteria and fungi by standard plate count and dilution series.

[2] = test system: ultra-dwarf Bermuda grass; experiment: Turfgrass quality and color ratings, ultra-dwarf Bermuda grass greens (Example 11); assay type: in vivo; parameters: key: 1-10 scale: 10 = dark green, 6 = initially acceptable, 1 = dead/brown; conditions: scale 1-10
Source text: In this Example, the effect of a fertilizer comprising lysine on warm season turfgrass growth was examined. The effects of lysine (HCl) and LIQUID LYSINE on a common type of golf course greens quality turfgrass (ultra-dwarf Bermuda grass) were compared with those of urea and Milorganite.
Twelve fertilizer treatments comprising three concentrations of each fertilizer composition (Milorganite (N—P—K, 6-2-0), urea (N—P—K, 46-0-0), LIQUID LYSINE (N—P—K, 10-2-1), and lysine (HCl) (N—P—K, 15-2-1)) were prepared and applied to 3 replications of ultra-dwarf Bermuda grass. The lysine (HCl) was dissolved in water prior to application. Each fertilizer treatment was applied in concentrations of 0.125 lb N/1000 ft^2/week, 0.25 lb N/1000 ft^2/week and 0.75 lb N/1000 ft^2/week. The urea, LIQUID LYSINE and lysine (HCl) were applied as foliar liquids, while Milorganite was applied as a granular fertilizer. Plot size was 1 m×1 m set up as a randomized complete block. Plots were mowed at 0.125 inches before fertilizer application. Irrigation (0.15 inch) was applied following application. Plots were rated for turfgrass quality and color (scale of 1-10 where 10=dark green turf, 1=dead/brown turf, and 6=initially acceptable turf) and phytotoxicity (scale of 0-5, where 5=worst, and 2=minimally objectionable) throughout the study period. Quality, color, and phytotoxicity were measured on 2 days before application (day −2) and day 2, day 5, day 15 and day 21 after application. All data was subject to statistical analysis and significant means were determined. Average turfgrass quality ratings for the treatments are presented in Table 12 and the quality results for application rates of 0.25 lb N/1000 ft^2/week are graphically presented in FIG. 6.

[3] = test system: Pennlinks creeping bentgrass maintained as a golf fairway; experiment: Phytotoxic injury rating, fairway creeping bentgrass (Example 15); assay type: in vivo
Source text: In this Example, the effect of a fertilizer comprising lysine on cool season fairway turfgrass growth was examined. The effects of lysine (HCl) and LIQUID LYSINE on a common type of golf course fairway variety turfgrass (Pennlinks creeping bentgrass maintained as a golf fairway) were compared with those of urea, Milorganite and a blended fertilizer (a blend of methylene urea and urea in an approximately 1:1 ratio).
Fifteen fertilizer treatments comprising three concentrations of each fertilizer composition (Milorganite (N—P—K, 6-2-0), urea (N—P—K, 46-0-0), a blended fertilizer, LIQUID LYSINE (N—P—K, 10-2-1), and lysine (HCl) (N—P—K, 15-2-1)) were prepared and applied to 3 replications of a well established Pennlinks creeping bentgrass maintained as a golf fairway grass. The urea, lysine (HCl), and LIQUID LYSINE were dissolved/suspended in 1.5 gal water prior to application. […] The urea, LIQUID LYSINE and lysine (HCl) were applied as foliar liquids, while Milorganite and the blended fertilizer were applied as granular fertilizers. Plot size was 4 ft×8 ft laid out in a replicated complete block design. Plots were mowed at 0.5 inches before fertilizer application and mowed three times per week to 0.5 inch height. Grass clippings were not removed from the plots and no supplemental cultural maintenance was applied. Irrigation (0.15 inch) was applied following application and every other day thereafter. Plots were rated for turfgrass quality (scale of 1-9 where 9=dark green turf, 1=dead/brown turf, and 6=minimally acceptable turf and phytotoxic injury (scale of 0-9 where 9=significant foliar injury and 2=minimally objectional foliar injury) throughout the study period. Quality was measured prior to application (day 0) and day 37, day 70 and day 95 after application. Injury was measured on day 37, day 70 and day 95 after application. All data was subject to statistical analysis and significant means were determined. Average turfgrass quality ratings for the treatments are presented in Table 24.

[4] = Weekly Rate 0.125 lbs N/1000 ft^2, Day 2
[5] = Weekly Rate 0.125 lbs N/1000 ft^2, Day 5
[6] = Weekly Rate 0.125 lbs N/1000 ft^2, Day 15
[7] = Weekly Rate 0.125 lbs N/1000 ft^2, Day 21
[8] = Weekly Rate 0.125 lbs N/1000 ft^2, Day −2 (before application)
[9] = Weekly Rate 0.25 lbs N/1000 ft^2, Day 2
[10] = Weekly Rate 0.25 lbs N/1000 ft^2, Day 5
[11] = Weekly Rate 0.25 lbs N/1000 ft^2, Day 15
[12] = Weekly Rate 0.25 lbs N/1000 ft^2, Day 21
[13] = Weekly Rate 0.25 lbs N/1000 ft^2, Day −2 (before application)
[14] = Weekly Rate 0.75 lbs N/1000 ft^2, Day 2
[15] = Weekly Rate 0.75 lbs N/1000 ft^2, Day 5
[16] = Weekly Rate 0.75 lbs N/1000 ft^2, Day 15
[17] = Weekly Rate 0.75 lbs N/1000 ft^2, Day 21
[18] = Weekly Rate 0.75 lbs N/1000 ft^2, Day −2 (before application)
[19] = Weekly Rate 0.5 lbs N/1000 ft^2, Day 37
[20] = Weekly Rate 0.5 lbs N/1000 ft^2, Day 70
[21] = Weekly Rate 0.5 lbs N/1000 ft^2, Day 95
[22] = Weekly Rate 1.0 lbs N/1000 ft^2, Day 37
[23] = Weekly Rate 1.0 lbs N/1000 ft^2, Day 70
[24] = Weekly Rate 1.0 lbs N/1000 ft^2, Day 95
[25] = Weekly Rate 3.0 lbs N/1000 ft^2, Day 37
[26] = Weekly Rate 3.0 lbs N/1000 ft^2, Day 70
[27] = Weekly Rate 3.0 lbs N/1000 ft^2, Day 95

Row | Structure (SMILES) | soil microbial populations compared with controls [1] | Color Rating - Dwarf Bermuda Grass [2, 4] | Quality Ratings - Dwarf Bermuda Grass [2, 4] | Color Rating - Dwarf Bermuda Grass [2, 5] | Quality Ratings - Dwarf Bermuda Grass [2, 5] | Color Rating - Dwarf Bermuda Grass [2, 6] | Quality Ratings - Dwarf Bermuda Grass [2, 6] | Color Rating - Dwarf Bermuda Grass [2, 7] | Quality Ratings - Dwarf Bermuda Grass [2, 7] | Color Rating - Dwarf Bermuda Grass [2, 8] | Quality Ratings - Dwarf Bermuda Grass [2, 8] | Color Rating - Dwarf Bermuda Grass [2, 9] | Quality Ratings - Dwarf Bermuda Grass [2, 9] | Color Rating - Dwarf Bermuda Grass [2, 10] | Quality Ratings - Dwarf Bermuda Grass [2, 10] | Color Rating - Dwarf Bermuda Grass [2, 11] | Quality Ratings - Dwarf Bermuda Grass [2, 11] | Color Rating - Dwarf Bermuda Grass [2, 12] [ab] | Quality Ratings - Dwarf Bermuda Grass [2, 12] | Color Rating - Dwarf Bermuda Grass [2, 13] | other results
1 | Cl.NCCCC[C@H](N)C(=O)O [Lys (HCl) 15% N, L-lysine monohydrochloride] | did not significantly differ | 7.2bc | 7.3bcd | 7.0cd | 6.7de | 6.8c-f | 6.3ef | 6.5cd | 6.2cd | 6.8 | 6.8 | 7.2bc | 7.2cd | 7.2bcd | 7.2cd | 7.2bcd | 7.2abc | 7.3 | 7.2ab | 7.0 | Quality Ratings - Dwarf Bermuda Grass [2, 13]: 6.5; Color Rating - Dwarf Bermuda Grass [2, 14]: 7.3abc; Quality Ratings - Dwarf Bermuda Grass [2, 14]: 7.5abc; Color Rating - Dwarf Bermuda Grass [2, 15]: 7.2bcd; Quality Ratings - Dwarf Bermuda Grass [2, 15]: 7.5bc; Color Rating - Dwarf Bermuda Grass [2, 16]: 7.7ab; Quality Ratings - Dwarf Bermuda Grass [2, 16]: 7.3abc; Color Rating - Dwarf Bermuda Grass [2, 17]: 7.2b; Quality Ratings - Dwarf Bermuda Grass [2, 17]: 6.8abc; Color Rating - Dwarf Bermuda Grass [2, 18]: 6.7; Quality Ratings - Dwarf Bermuda Grass [2, 18]: 6.5; Injury Rating - Fairway Bentgrass [3, 19]: 1.3ab; Injury Rating - Fairway Bentgrass [3, 20]: 5.7; Injury Rating - Fairway Bentgrass [3, 21]: 2.0bc; Injury Rating - Fairway Bentgrass [3, 22]: 1.0b; Injury Rating - Fairway Bentgrass [3, 23]: 5.0; Injury Rating - Fairway Bentgrass [3, 24]: 3.0abc; Injury Rating - Fairway Bentgrass [3, 25]: 2.0a; Injury Rating - Fairway Bentgrass [3, 26]: 4.7; Injury Rating - Fairway Bentgrass [3, 27]: 2.0bc
2 | NC(N)=O [Urea, urea, reference compound] | did not significantly differ | 7.7ab | 7.7abc | 7.7ab | 7.5bc | 7.2bcd | 7.0bcd | 6.8bc | 6.7abc | 7.0 | 6.5 | 7.7ab | 7.7abc | 7.3abc | 7.5bc | 7.3bc | 7.0bcd | 7.3 | 6.8abc | 6.7 | Quality Ratings - Dwarf Bermuda Grass [2, 13]: 6.3; Color Rating - Dwarf Bermuda Grass [2, 14]: 7.8a; Quality Ratings - Dwarf Bermuda Grass [2, 14]: 8.2a; Color Rating - Dwarf Bermuda Grass [2, 15]: 7.8a; Quality Ratings - Dwarf Bermuda Grass [2, 15]: 8.3a; Color Rating - Dwarf Bermuda Grass [2, 16]: 8.0a; Quality Ratings - Dwarf Bermuda Grass [2, 16]: 7.5ab; Color Rating - Dwarf Bermuda Grass [2, 17]: 7.8a; Quality Ratings - Dwarf Bermuda Grass [2, 17]: 7.3a; Color Rating - Dwarf Bermuda Grass [2, 18]: 6.8; Quality Ratings - Dwarf Bermuda Grass [2, 18]: 6.3; Injury Rating - Fairway Bentgrass [3, 19]: 1.3ab; Injury Rating - Fairway Bentgrass [3, 20]: 6.3; Injury Rating - Fairway Bentgrass [3, 21]: 2.0bc; Injury Rating - Fairway Bentgrass [3, 22]: 1.3ab; Injury Rating - Fairway Bentgrass [3, 23]: 6.0; Injury Rating - Fairway Bentgrass [3, 24]: 1.3c; Injury Rating - Fairway Bentgrass [3, 25]: 1.0b; Injury Rating - Fairway Bentgrass [3, 26]: 5.7; Injury Rating - Fairway Bentgrass [3, 27]: 4.3a
